Patent US20260297134A1, “CYCLIC PEPTIDES AS PET IMAGING AGENTS OF GRANZYME B” (Merck Sharp & Dohme LLC, priority 2023, published 2026)
Bridge positions count the residues as written; N and C are the ends. Square brackets hold non-standard residues; d marks the D form. Peptide text beside a SMILES is read from it. * marks the point of attachment. X1 = O=C(O)CN1CCN(CC(=O)O)CC(Cc2ccc(NC(=S)*)cc2)N(CC(=O)O)CC1; NMeF = CN[C@@H](Cc1ccccc1)C(=O)O

Experiments:
[1] = Dynamic PET/CT scan in healthy rhesus monkey, biodistribution and clearance; assay type: in vivo, male rhesus monkey; details: i.v.
Experimental: Healthy non-human primate: A 3 h dynamic PET/CT scan was performed in a healthy male rhesus monkey to determine whole body biodistribution and clearance properties in an additional species. Approximately 6 mCi of ^18F-labeled anti-granzyme-B peptide was intravenously injected in the animal. Attenuation correction was performed using low-dose CT scan. Regions of interests (ROI) were manually drawn over tissues of interest to determine mean standardized uptake value (SUVmean).

[2] = biological target: human Granzyme B (hGranzyme B) (Homo sapiens, UniProt P10144); assay: Surface Plasmon Resonance (SPR) binding to human Granzyme B; details: Table 8, 25° C.
human Granzyme B (hGranzyme B), sequence (P10144 21-247): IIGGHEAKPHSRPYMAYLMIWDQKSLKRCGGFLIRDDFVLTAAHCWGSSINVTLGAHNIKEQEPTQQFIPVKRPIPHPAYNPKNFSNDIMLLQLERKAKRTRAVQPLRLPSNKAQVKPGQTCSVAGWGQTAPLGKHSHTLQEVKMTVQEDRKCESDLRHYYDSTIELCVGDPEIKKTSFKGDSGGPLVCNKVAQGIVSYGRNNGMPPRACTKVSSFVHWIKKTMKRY
Experimental: All reagents and solvents were purchased from commercial sources and used “as is” unless otherwise noted. Reaction progress and synthetic intermediate analysis were assessed by LCMS (UV detection with ESI, APCI, or other mass detection) when applicable using a MeCN/water gradient with either TFA, formic acid, or NH4HCO3 modifier. Silica gel and reverse-phase flash column chromatography were conducted with commercially available pre-packed columns. Reverse-phase preparative HPLC purification was performed on preparative HPLC instruments with UV and MS detection using a MeCN/water gradient with either TFA, formic acid, or NH4OH modifier. Unless otherwise noted, all KD data presented in tables refers to the surface plasmon resonance assay that is described in the Biological Assay section.
The kinetics of test peptide binding to human Granzyme B (hGranzyme B) was determined by SPR. All experiments were performed at 25° C. using the Biacore 8k+ instrument (Cytiva, Marlborough, MA). The Biacore 8k+ Insight Evaluation Software Version 3.0 was used to fit the data with a 1:1 binding model to determine the association rate constant ka (M^−1s^−1, where “M” equals molar and “s” equals seconds) and the dissociation rate constant kd (s^−1). These rate constants were used to calculate the equilibrium dissociation constant, KD (M)=kd/ka. To measure the binding kinetics of peptides of interest, surfaces were prepared by a capture method to a Series S Streptavidin (SA) chip using a 1×HBS-EP+ running buffer (Cytiva). hGranzyme B was diluted to 10 μg/mL in 1×HBS-EP+ and flowed over spot 2 of each flow cell on the chip at a flow rate of 10 μl/min for 20 s to achieve a level of capture of ~1100 RU. An unmodified spot 1 of each flow cell was used as a matrix binding control or reference surface. Binding kinetics were measured using single cycle kinetics at 25° C. by injecting 5 concentrations with 3-fold serial dilutions of test peptides from […] to 1 μM. Compound dilutions were performed manually in a running buffer containing 1×HBS-EP+(Cytiva), and a final concentration of 2% DMSO. The interaction analyses over hGranzyme B, were performed using a 120 s association time and a 900 s dissociation time. All experiments were conducted at a flow rate of […] with a data collection rate of 10 Hz.
Peptide dilution series included 2 zero concentration points (no compound) which were averaged and subtracted from the peptide concentration injection as DMSO control responses. Binding data acquired from the reference surface (matrix binding control) were subtracted from the binding data for hGranzyme B surface on the chip to determine specific binding. Next, the association phase data were solvent corrected to account for any signal fluctuation throughout the experiment due to subtle DMSO concentration differences. Corrected response data were analyzed using the Biacore 8k+ Evaluation Software Version 3.0 according to the manufacturer. SPR data for representative compounds of the disclosure are found in Table 8.

Human granzyme B = Human granzyme B (Homo sapiens, UniProt P10144); assay: Granzyme B Biochemical Inhibition Assay; details: granzyme B 8 nM; 30 min preincubation, room temperature
Human granzyme B, sequence (P10144 21-247): as above
Experimental: Compounds to be tested as inhibitors were manually prepared in a 2-fold serial dilutions in DMSO, spanning 200 μM to 0.39 μM in a Labcyte Echo qualified low dead volume 384-well plate. Then an ECHO acoustic liquid handler was used to dispense 125 nL of each compound from 384-well plate into a PerkinElmer Proxiplate-384 Plus F assay plate. For the positive control of inhibitor, (S)-3-((3S,6S)-3-((2S,3S)-2-acetamido-3-methylpentanamido)-4-oxo-1,2,3,4,6,7-hexahydroazepino[3,2,1-hi]indole-6-carboxamido)-4-oxobutanoic acid (see C. A. Willoughby et al./Bioorg. Med. Chem. Lett. 12 (2002) 2197-2200 2199) was used at 2 μM assay concentration. For no inhibition control, DMSO was used. Each compound was run in duplicate.
Once the compounds were dispensed in the plates, enzyme mix and substrate mix were prepared. […] Subsequently, 3.125 μL of substrate mix were added to each well using the BioRaptr, reaching a final assay volume of 12.5 μL. and the plate was monitored using a Pherastar FS by 1 read per minute for 30 minutes in fluorescence mode, excitation wavelength is 400 nm and emission wavelength is 510 nm.
The data analysis was performed first in excel, where the slopes of the measured fluorescence from each sample were determined using MARS software from BMG LABTECH. […]

Compound: CC(C)[C@@H]1NC(=O)[C@H](CC(=O)O)NC(=O)[C@H](Cc2ccc(O)cc2)NC(=O)[C@H](Cc2ccc(O)cc2)NC(=O)[C@H](Cc2ccccc2)N(C)C(=O)[C@H](Cc2ccccc2)N(C)C(=O)[C@H](Cc2ccccc2)NC(=O)CSC[C@@H](C(=O)NCC(=O)NCC(=O)N[C@@H](CCCCNC(=S)Nc2ccc(CC3CN(CC(=O)O)CCN(CC(=O)O)CCN3CC(=O)O)cc2)C(N)=O)NC(=O)[C@H](Cc2c[nH]cn2)NC(=O)[C@H](Cc2ccccc2)N(C)C(=O)[C@H](Cc2ccc(O)cc2)NC(=O)[C@H](C(C)C)NC(=O)[C@H](CC(=O)O)NC(=O)[C@H](C(C)C)NC(=O)[C@H](CC(=O)O)NC1=O (stereo partly drawn) [Compound 6a, *F.NMeF.NMeF.Y.Y.D.V.D.V.D.V.Y.NMeF.H.*C.G.G.K(^18F-AlF-NOTA)-NH2] ({CH2CO}-F[NMeF][NMeF]YYDVDVDVY[NMeF]HCGGK(X1)-NH2; thioether N-15)
- excretion route ([1]; PET images): primarily excreted through renal route
- blood pool clearance ([1]; approximately 6 mCi, PET): rapid blood pool clearance
- liver uptake duration ([1]; quantitative analyses of PET images): prolonged liver uptake
- uptake in liver and kidneys ([1]; within first 20 minutes of injection): high uptake in liver and kidneys within first 20 minutes of injection

Compound: CC(C)[C@@H]1NC(=O)[C@H](CC(=O)O)NC(=O)[C@H](Cc2ccc(O)cc2)NC(=O)[C@H](Cc2ccc(O)cc2)NC(=O)[C@H](Cc2ccccc2)N(C)C(=O)[C@H](Cc2ccccc2)N(C)C(=O)[C@H](Cc2ccccc2)NC(=O)CSC[C@@H](C(=O)NCC(N)=O)NC(=O)[C@H](Cc2c[nH]cn2)NC(=O)[C@H](Cc2ccccc2)N(C)C(=O)[C@H](Cc2ccc(O)cc2)NC(=O)[C@H](C(C)C)NC(=O)[C@H](CC(=O)O)NC(=O)[C@H](C(C)C)NC(=O)[C@H](CC(=O)O)NC1=O [Compound 1a, *F.NMeF.NMeF.Y.Y.D.V.D.V.D.V.Y.NMeF.H.*C.G-NH2] ({CH2CO}-F[NMeF][NMeF]YYDVDVDVY[NMeF]HCG-NH2; thioether N-15)
- Kd [2]: 0.5 nM
- IC50 (Human granzyme B): 113 nM
